In patent US12377110B2, “Fospropofol methods and compositions” (Epalex Corporation, priority 2019, dated 2025):
Read-outs that look alike come from different tables or passages of the source.

What was measured:
[1] = Study No. 15-4 toxicokinetics of fospropofol and propofol in plasma; type: in vivo, Beagle dogs; settings: for Tmax: read-out: Fospropofol Tmax; for AUC(0-t): read-out: Fospropofol AUC0-6 hr
Experimental: The purpose of Study No. 15-4 (GLP) was to determine the potential toxicity of fospropofol in Beagle dogs when administered once daily by oral gavage for 14 days. […] Because the treatment-related clinical observations (consistent with the expected transient sedative actions of fospropofol) and effects on hematology and clinical chemistry parameters were considered nonadverse, the NOAEL was determined to be 160 mg/kg/day (3200 mg/m^2/day).

[2] = Study A16 Part 2: PK of a single dose of 1200 mg fospropofol disodium following a high-fat meal; type: in vivo, human
Experimental: Part 2 of Study A16 was a double-blind, placebo-controlled, single-close pilot study to investigate the PK, safety, and tolerability of 1200 mg of fospropofol disodium administered to healthy adult men and women following a high-fat meal.
Subjects were healthy adults (age 18-55 years inclusive, BMI 18-29.9 kg/m^2). A separate cohort of 15 subjects was randomly assigned to receive a single oral dose of either fospropofol disodium (n=12) or matching placebo (n=3) within 30 minutes (±1 minute) after the start of a standardized high-fat meal.
Subjects were admitted to the clinical unit for an overnight fast (Day −1), administered study drug on Day 1 within 30 minutes of the start a standardized high-fat meal, and remained in the clinical unit until Day 2.
Fospropofol disodium was formulated as powder in 6 HPMC capsules, each capsule containing 200 mg of fospropofol disodium (weight adjusted for water content). Placebo was administered as 6 matching capsules.

[3] = Study A16 Part 1: PK of single ascending oral doses of fospropofol disodium (200 to 2000 mg), fasted healthy adults; type: in vivo, human; settings: for AUC / Cmax / Tmax: both sexes, human, plasma; for Cmax: read-out: Fospropofol Cmax
Experimental: Part 1 of Study A16 was a double-blind, randomized, placebo-controlled study to investigate the safety-tolerability and PK of oral administration of single ascending doses of fospropofol disodium to healthy adult male and female volunteers.
Subjects were healthy adults (age 18-55 years inclusive, BMI 18-29.9 kg/m^2). Separate cohorts of 12 subjects each were randomized to receive fospropofol disodium at doses of 200, 400, 800, 1000, 1200, 1600, or 2000 mg (n=10 per cohort) or matching placebo (n=2 per cohort).
Subjects were admitted to the clinical unit for an overnight fast (Day −1), administered study drug on Day 1, and remained in the clinical unit until Day 2.
Fospropofol disodium was formulated as powder in an HPMC capsule, each capsule containing 200 mg of fospropofol disodium (weight adjusted for water content). Placebo was administered as an appropriate number of matching capsules.
Based on PK results from the early cohorts, sampling times were optimized beginning with Cohort 3 (800 mg) to preclose, 5, 10, 15, 20, 25, 30, 37, and 45, minutes and 1, 2, 4, 6, and 9 hours after closing.

[4] = female, beagle, dog, plasma, po, 50 mg/kg, oral gavage fospropofol disodium, Female, 50 mg/kg, Day 1
[5] = female, beagle, dog, plasma, po, 50 mg/kg, oral gavage fospropofol disodium, Female, 50 mg/kg, Day 14
[6] = female, beagle, dog, plasma, po, 100 mg/kg, oral gavage fospropofol disodium, Female, 100 mg/kg, Day 1
[7] = female, beagle, dog, plasma, po, 100 mg/kg, oral gavage fospropofol disodium, Female, 100 mg/kg, Day 14
[8] = female, beagle, dog, plasma, po, 160 mg/kg, oral gavage fospropofol disodium, Female, 160 mg/kg, Day 1
[9] = female, beagle, dog, plasma, po, 160 mg/kg, oral gavage fospropofol disodium, Female, 160 mg/kg, Day 14
[10] = male, beagle, dog, plasma, po, 50 mg/kg, oral gavage fospropofol disodium, Male, 50 mg/kg, Day 1
[11] = male, beagle, dog, plasma, po, 50 mg/kg, oral gavage fospropofol disodium, Male, 50 mg/kg, Day 14
[12] = male, beagle, dog, plasma, po, 100 mg/kg, oral gavage fospropofol disodium, Male, 100 mg/kg, Day 1
[13] = male, beagle, dog, plasma, po, 100 mg/kg, oral gavage fospropofol disodium, Male, 100 mg/kg, Day 14
[14] = male, beagle, dog, plasma, po, 160 mg/kg, oral gavage fospropofol disodium, Male, 160 mg/kg, Day 1
[15] = male, beagle, dog, plasma, po, 160 mg/kg, oral gavage fospropofol disodium, Male, 160 mg/kg, Day 14

For `CC(C)c1cccc(C(C)C)c1OCOP(=O)(O)O` [fospropofol, (2,6-diisopropylphenoxy)methyl dihydrogen phosphate], the “Sex differences in fospropofol Cmax or AUC0-6h” value ([1]; 50, 100, and 160 mg/kg/day for 14 days) was “no clear sex differences”, the Tmax ([1]; Beagle, dog, plasma, oral, range over all groups) was 5 to 60 min and the “Increase of fospropofol Cmax and AUC0-6hr with dose” value ([1]; Days 1 and 14, males and females (except females on Day 14)) was “less than close proportional”. For the same compound, the half-life ([1]; both sexes, Beagle, dog, plasma, oral, males and females, read-out: Fospropofol apparent individual terminal half-lives) was 18 to 36 min, the Cmax [1, 4] was 3680 ng/mL and the AUC(0-t) [1, 4] was 4710 ng·h/mL. It also gave a Tmax [1, 4] of 30 to 60 min, a Cmax [1, 5] of 3770 ng/mL and an AUC(0-t) [1, 5] of 5730 ng·h/mL. The Tmax [1, 5] was 30 to 60 min, the Cmax [1, 6] was 10100 ng/mL and the AUC(0-t) [1, 6] was 11900 ng·h/mL. It also gave a Tmax [1, 6] of 15 to 30 min, a Cmax [1, 7] of 9310 ng/mL and an AUC(0-t) [1, 7] of 15100 ng·h/mL. The Tmax [1, 7] was 30 to 60 min, the Cmax [1, 8] was 7380 ng/mL and the AUC(0-t) [1, 8] was 11200 ng·h/mL. The Tmax [1, 8] was 15 to 60 min, the Cmax [1, 9] was 12700 ng/mL and the AUC(0-t) [1, 9] was 16000 ng·h/mL. The Tmax [1, 9] was 15 to 60 min, the Cmax [1, 10] was 5130 ng/mL and the AUC(0-t) [1, 10] was 7710 ng·h/mL. It also gave a Tmax [1, 10] of 30 to 60 min, a Cmax [1, 11] of 3300 ng/mL and an AUC(0-t) [1, 11] of 4860 ng·h/mL. The Tmax [1, 11] was 30 to 60 min, the Cmax [1, 12] was 9480 ng/mL and the AUC(0-t) [1, 12] was 11700 ng·h/mL. It also gave a Tmax [1, 12] of 30 to 60 min, a Cmax [1, 13] of 6340 ng/mL and an AUC(0-t) [1, 13] of 6340 ng·h/mL. The Tmax [1, 13] was 15 to 60 min, the Cmax [1, 14] was 10000 ng/mL and the AUC(0-t) [1, 14] was 13500 ng·h/mL. The Tmax [1, 14] was 15 to 60 min, the Cmax [1, 15] was 6970 ng/mL and the AUC(0-t) [1, 15] was 9000 ng·h/mL. For the same compound, the Tmax [1, 15] was 4.98 to 60 min, the “Effect of high-fat meal on exposure” value ([2]; 1200 mg within 30 minutes after the start of a high-fat meal) was “significant reduction in exposure” and the “Mean exposure to fospropofol (both Cmax and AUC) under fed conditions relative to fasting” value ([2]; 1200 mg, high-fat meal vs fasting) was “approximately 24%”. It also gave a Tmax ([2]; both sexes, human, plasma, oral, 1200 mg, fed, no appreciable effect, read-out: Fospropofol Tmax (median)) of 20 min, an AUC(0-inf) ([2]; both sexes, human, plasma, oral fospropofol disodium 1200 mg, Fed (Cohort 8), n = 10/12, mean, read-out: Fospropofol AUC0-∞) of 1080 ng·h/mL and a half-life ([2]; both sexes, human, plasma, oral fospropofol disodium 1200 mg, Fed (Cohort 8), n = 10/12, mean, read-out: Fospropofol t1/2 (converted)) of 15.6 min. It also gave a Cmax ([2]; both sexes, human, plasma, oral fospropofol disodium 1200 mg, Fed (Cohort 8), n= 12, mean) of 1790 ng/mL, an AUC(0-t) ([2]; both sexes, human, plasma, oral fospropofol disodium 1200 mg, Fed (Cohort 8), n= 12, mean, read-out: Fospropofol AUC0-T) of 993 ng·h/mL and a Tmax ([2]; both sexes, human, plasma, oral fospropofol disodium 1200 mg, Fed (Cohort 8), n= 12, median, read-out: Fospropofol Tmax) of 19.8 min. The “Fospropofol CL/F” value ([2]; oral fospropofol disodium 1200 mg, Fed (Cohort 8), n = 10/12, mean) was 4122 L/h, the “Dose proportionality of fospropofol AUC0-2h, AUC0-T, AUC0-∞, and Cmax (power model)” value ([3]; 200 mg to 2000 mg) was “close proportional” and the AUC ([3]; oral, 800 mg, subjects 301-312 (800 mg cohort), Mean, read-out: Fospropofol AUC1) was 2780 ng·h/mL. It also gave an AUC ([3]; oral, 800 mg, subjects 301-312 (800 mg cohort), Mean, read-out: Fospropofol AUC2) of 3330 ng·h/mL, an AUC ([3]; oral, 800 mg, subjects 301-312 (800 mg cohort), Mean, read-out: Fospropofol AUC4) of 3440 ng·h/mL and a Cmax ([3]; oral, 800 mg, subjects 301-312 (800 mg cohort), Mean) of 6040 ng/mL. It also gave a Tmax ([3]; oral, 800 mg, subjects 301-312 (800 mg cohort), Mean, read-out: Fospropofol Tmax) of 20.4 min, a Tmax ([3]; oral, 800 mg, subjects 301-312 (800 mg cohort), individual subjects (Subject No. in c0), read-out: Fospropofol Tmax) of 30 min and a Tmax ([3]; oral, 200 to 2000 mg cohorts, read-out: Fospropofol median Tmax (converted)) of roughly 20 min. For the same compound, the Cmax ([3]; po, 200 mg, oral fospropofol disodium 200 mg, mean) was 1980 ng/mL, the Tmax ([3]; po, 200 mg, oral fospropofol disodium 200 mg, median, read-out: Fospropofol Tmax) was 19.8 min and the Cmax ([3]; po, 400 mg, oral fospropofol disodium 400 mg, mean) was 4460 ng/mL. The Tmax ([3]; po, 400 mg, oral fospropofol disodium 400 mg, median, read-out: Fospropofol Tmax) was 19.8 min, the Cmax ([3]; po, 800 mg, oral fospropofol disodium 800 mg, mean) was 6040 ng/mL and the Tmax ([3]; po, 800 mg, oral fospropofol disodium 800 mg, median, read-out: Fospropofol Tmax) was 19.8 min. It also gave a Cmax ([3]; po, 1000 mg, oral fospropofol disodium 1000 mg, mean) of 8240 ng/mL, a Tmax ([3]; po, 1000 mg, oral fospropofol disodium 1000 mg, median, read-out: Fospropofol Tmax) of 19.8 min and a Cmax ([3]; po, 1200 mg, oral fospropofol disodium 1200 mg, Fasted (Cohort 5), n = 10, mean) of 7110 ng/mL. The Tmax ([3]; po, 1200 mg, oral fospropofol disodium 1200 mg, Fasted (Cohort 5), n = 10, median, read-out: Fospropofol Tmax) was 19.8 min, the Cmax ([3]; po, 1200 mg, oral fospropofol disodium 1200 mg, mean) was 7110 ng/mL and the Tmax ([3]; po, 1200 mg, oral fospropofol disodium 1200 mg, median, read-out: Fospropofol Tmax) was 19.8 min. It also gave a Cmax ([3]; po, 1600 mg, oral fospropofol disodium 1600 mg, mean) of 10200 ng/mL, a Tmax ([3]; po, 1600 mg, oral fospropofol disodium 1600 mg, median, read-out: Fospropofol Tmax) of 19.8 min and a Cmax ([3]; po, 2000 mg, oral fospropofol disodium 2000 mg, mean) of 17100 ng/mL.
